We go through two compounds from patent US20110189266A1, “CORTICOSTEROID MICROVESICLES FOR TREATMENT OF CARDIOVASCULAR DISEASES” (MOUNT SINAI SCHOOL OF MEDICINE OF NEW YORK UNIVERSITY, priority 2008, published 2011).

For assay [1], the system named is atherosclerotic plaques of the abdominal aorta. The assay can be described thus: 18F-FDG PET/CT of the abdominal aorta (mean SUV), rabbit model of atherosclerosis. Format: in vivo, New Zealand White (NZW) rabbits. The conditions noted are these: single i.v. injection 15 mg/kg.
Method: Seventeen male New Zealand White (NZW) rabbits (mean age 7 months; mean weight 3.5±0.2 kg; Covance) were included in this study. Aortic atherosclerotic plaques were induced in 15 NZW rabbits, through a well established model^18, by a combination of 7 months of high cholesterol diet (4.7% palm oil and 0.3% cholesterol-enriched diet; Research Diet Inc.) and a repeated balloon injury of the aorta (two weeks and six weeks after starting the high cholesterol diet). Aortic injury was performed from the aortic arch to the iliac bifurcation with a 4F Fogarty embolectomy catheter introduced through the femoral artery. […]
PET/CT images were analyzed on a Xeleris workstation. […] SUV was calculated by dividing the tissue concentration (kBq/mL) by the injected dose per gram of body weight (kBq/g).
The scans allow the quantification of the standard uptake value (SUV) of ^18F-FDG in the abdominal aorta. The SUV is the decay-corrected tissue concentration of FDG (in kBq/g), corrected for injected FDG dose and body weight (in kBq/g), and is a well-recognized method for quantification of FDG PET data. Prior to start of treatment, the aortas of six atherosclerotic rabbits and two non-atherosclerotic rabbits were measured to establish mean SUV levels of atherosclerotic and non-atherosclerotic rabbits.
The test system of assay [2] is atherosclerotic plaque permeability, aortic wall. The assay is described as follows: Dynamic contrast enhanced MRI (DCE-MRI) to quantify changes in plaque permeability. It counts as in vivo, New Zealand White (NZW) rabbits. The conditions noted are these: before vs two days after administration.
Another assay deals with neo-intimal formation. To be noted: prednisone- and Taxus stent-treated animals; Ribichini et al 2007; cited from earlier work.

As for “prednisolone phosphate disodium salt [free circulating glucocorticoids]”, in assay [1], the “SUV differences between pre, and two and seven days post treatment” value is “no significant SUV differences”. For the same compound, in assay [1] (one week post-treatment vs pre, p=0.006 (liposomal), p=0.40 (free)), the “SUV change one week post-treatment” value is “no SUV reduction”. In addition, the “change of DCE-MRI area under the curve (AUC) of the aortic wall” value in assay [2] is on record as “not”.

Consider `C[C@]12C=CC(=O)C=C1CC[C@@H]1[C@@H]2C(=O)C[C@@]2(C)[C@H]1CC[C@]2(O)C(=O)CO` [prednisone], for which, in the assay with neo-intimal formation, the neo-intimal formation entry is recorded as “reduced neo-intimal formation”.
